Results: patent US20190151290A1 (Hoffmann-La Roche Inc., priority 2015, published 2019)

Columns and labels:
[1] = tested on: patients who had a linear GFR decline (diabetic nephropathy patients); settings: due to hemodynamic response
[2] = tested on: patients with type 2 diabetes mellitus and acute coronary syndrome; type: in vivo; settings: aleglitazar 150 μg daily vs placebo, overall population

## CO[C@@H](Cc1ccc(OCCc2nc(-c3ccccc3)oc2C)c2ccsc12)C(=O)O [aleglitazar, (S)-2-methoxy-3-{4-[2-(5-methyl-2-phenyl-oxazol-4-yl)-ethoxy]-benzo[b]thiophen-7-yl}-propionic acid]
[1]
  initial drop of GFR: reversible after stopping the drug
[2]
  hemoglobin A1C: reduced
  incidence of cardiovascular death, myocardial infarction or stroke: did not significantly decrease
  serum HDL-C level: improved
  serum triglyceride level: improved
